IC50 data for 15 compounds are collected here from US8252826B2, “Cyclopentyl- and cycloheptylpyrazoles” (Hoffmann-La Roche Inc., priority 2010, dated 2012).

The target of this experiment is T1, FXR ligand binding domain (Homo sapiens, UniProt Q96RI1).
T1 sequence (Q96RI1 211-483 limits assumed): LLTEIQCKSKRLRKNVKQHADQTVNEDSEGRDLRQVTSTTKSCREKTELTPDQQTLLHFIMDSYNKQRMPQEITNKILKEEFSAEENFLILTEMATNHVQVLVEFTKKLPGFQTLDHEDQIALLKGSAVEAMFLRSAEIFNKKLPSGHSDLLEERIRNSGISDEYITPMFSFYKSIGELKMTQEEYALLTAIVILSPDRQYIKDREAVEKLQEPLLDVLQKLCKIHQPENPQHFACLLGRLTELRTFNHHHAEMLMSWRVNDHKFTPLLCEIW
Nature of the experiment: Radioligand binding assay (scintillation proximity radioligand displacement).
Method: Radioligand Binding Assay
Binding of test substances to the FXR ligand binding domain was assessed in a radioligand displacement assay. The assay was performed in a buffer consisting of 50 mM Hepes, pH 7.4, 10 mM NaCl, 5 mM MgCl2. […] All binding assays were performed in 96-well plates and the amount of bound ligand was measured on a Packard TopCount using OptiPlates (Packard). Dose response curves were performed within a range of concentration from 6×10^−9 M to 2.5×10^−5 M.
For `Fc1cc(-c2nnn[nH]2)ccc1OCC(c1c2c(nn1-c1ccc(Cl)cc1)CCCCC2)C1CCCCC1` (stereo not drawn) [Example 16, 2-(4-Chloro-phenyl)-3-{1-cyclohexyl-2-[2-fluoro-4-(1H-tetrazol-5-yl)-phenoxy]-ethyl}-2,4,5,6,7,8-hexahydro-cycloheptapyrazole], the IC50 is 155 nM.
Then `O=C(O)c1ccc(SCC(c2c3c(nn2-c2ccc(Cl)cc2)CCC3)C2CCCCC2)cc1` (stereo not drawn) [Example 8, 4-{2-[2-(4-Chloro-phenyl)-2,4,5,6-tetrahydro-cyclopentapyrazol-3-yl]-2-cyclohexyl-ethylsulfanyl}-benzoic acid], with 1100 nM; and `N#Cc1ccc(OCC(c2c3c(nn2-c2ccc(Cl)cc2)CCCCC3)C2CCCCC2)c(F)c1` (stereo not drawn) [Example 14, 4-{2-[2-(4-Chloro-phenyl)-2,4,5,6,7,8-hexahydro-cycloheptapyrazol-3-yl]-2-cyclohexyl-ethoxy}-3-fluoro-benzonitrile], with 21300 nM.
Then `Fc1cc(-c2nnn[nH]2)ccc1OCC(c1c2c(nn1-c1ccc(Cl)cc1)CCC2)C1CCCCC1` (stereo not drawn) [Example 5, 2-(4-Chloro-phenyl)-3-{1-cyclohexyl-2-[2-fluoro-4-(2H-tetrazol-5-yl)-phenoxy]-ethyl}-2,4,5,6-tetrahydro-cyclopentapyrazole], with 92 nM.
As for `O=C(O)c1ccc(NC(=O)C(c2c3c(nn2-c2ccc(Cl)cc2)CCC3)C2CCCCC2)c(F)c1` (stereo not drawn) [Example 6, 4-{2-[2-(4-Chloro-phenyl)-2,4,5,6-tetrahydro-cyclopentapyrazol-3-yl]-2-cyclohexyl-acetylamino}-3-fluoro-benzoic acid], the figure is 603 nM.
Compound `O=C(NC1CCCCC1)C(c1c2c(nn1-c1ccc(Cl)cc1)CCC2)C1CCCCC1` (stereo not drawn) [Example 4, 2-[2-(4-Chloro-phenyl)-2,4,5,6-tetrahydro-cyclopentapyrazol-3-yl]-2,N-dicyclohexyl-acetamide] displayed an IC50 of 3300 nM. This IC50 lies about 5.5-fold higher than the previous one.
As for `COC(=O)c1cc(C)c(OCC(c2c3c(nn2-c2ccc(Cl)cc2)CCC3)C2CCCCC2)c(C)c1` (stereo not drawn) [Example 1, 4-{2-[2-(4-Chloro-phenyl)-2,4,5,6-tetrahydro-cyclopentapyrazol-3-yl]-2-cyclohexyl-ethoxy}-3,5-dimethyl-benzoic acid methyl ester], the figure is 28700 nM; as for `Cc1cc(C(=O)O)cc(C)c1OCC(c1c2c(nn1-c1ccc(Cl)cc1)CCCCC2)C1CCCCC1` (stereo not drawn) [Example 15, 4-{2-[2-(4-Chloro-phenyl)-2,4,5,6,7,8-hexahydro-cycloheptapyrazol-3-yl]-2-cyclohexyl-ethoxy}-3,5-dimethyl-benzoic acid], 530 nM.
Then `COC(=O)c1ccc(NC(=O)C(c2c3c(nn2-c2ccc(Cl)cc2)CCCCC3)C2CCCCC2)c(F)c1` (stereo not drawn) [Example 12, 4-{2-[2-(4-Chloro-phenyl)-2,4,5,6,7,8-hexahydro-cycloheptapyrazol-3-yl]-2-cyclohexyl-acetylamino}-3-fluoro-benzoic acid methyl ester], with 7000 nM.
As for `N#Cc1ccc(OCC(c2c3c(nn2-c2ccc(Cl)cc2)CCC3)C2CCCCC2)c(F)c1` (stereo not drawn) [Example 3, 4-{2-[2-(4-Chloro-phenyl)-2,4,5,6-tetrahydro-cyclopentapyrazol-3-yl]-2-cyclohexyl-ethoxy}-3-fluoro-benzonitrile], the figure is 1300 nM.
For the compound `O=C(O)c1ccc(NC(=O)C(c2c3c(nn2-c2ccc(Cl)cc2)CCCCC3)C2CCCCC2)c(F)c1` (stereo not drawn) [Example 13, 4-{2-[2-(4-Chloro-phenyl)-2,4,5,6,7,8-hexahydro-cycloheptapyrazol-3-yl]-2-cyclohexyl-acetylamino}-3-fluoro-benzoic acid], the concentration for half-maximal inhibition (IC50) is 1700 nM. The IC50 values of the last two compounds are within 1.5-fold of each other.
As for `CC(C)(Oc1ccc(NC(=O)C(c2c3c(nn2-c2ccc(Cl)cc2)CCCCC3)C2CCCCC2)c(F)c1)C(=O)O` (stereo not drawn) [Example 10, 2-(4-{2-[2-(4-Chloro-phenyl)-2,4,5,6,7,8-hexahydro-cycloheptapyrazol-3-yl]-2-cyclohexyl-acetylamino}-3-fluoro-phenoxy)-2-methyl-propionic acid], the figure is 1300 nM; as for `O=C(O)c1ccc(OCC(c2c3c(nn2-c2ccc(Cl)cc2)CCC3)C2CCCCC2)nc1` (stereo not drawn) [Example 7, 6-{2-[2-(4-Chloro-phenyl)-2,4,5,6-tetrahydro-cyclopentapyrazol-3-yl]-2-cyclohexyl-ethoxy}-nicotinic acid], 52 nM.
As for `CCOC(=O)C(C)(C)Oc1ccc(NC(=O)C(c2c3c(nn2-c2ccc(Cl)cc2)CCCCC3)C2CCCCC2)c(F)c1` (stereo not drawn) [Example 9, 2-(4-{2-[2-(4-Chloro-phenyl)-2,4,5,6,7,8-hexahydro-cycloheptapyrazol-3-yl]-2-cyclohexyl-acetylamino}-3-fluoro-phenoxy)-2-methyl-propionic acid ethyl ester], the figure is 21400 nM.
As for `O=C(NC1CCCCC1)C(c1c2c(nn1-c1ccc(Cl)cc1)CCCCC2)C1CCCCC1` (stereo not drawn) [Example 11, 2-[2-(4-Chloro-phenyl)-2,4,5,6,7,8-hexahydro-cycloheptapyrazol-3-yl]-2,N-dicyclohexyl-acetamide], the figure is 2400 nM.

As a reminder, the IC50 is the concentration needed to halve the response being measured. Low values mean greater potency, high ones weaker potency.
